In patent US20140228287A1, “1-[(3-CYANO-PYRIDIN-2-YL)METHYL]-3-METHYL-7-(2-BUTYN-1-YL)-8-[3-(R)-AMINO-PIPERIDIN-1-YL]-AXANTHINE FOR THE TREATMENT OF A METABOLIC DISORDER OF A PREDOMINANTLY CARNIVOROUS NON-HUMAN ANIMAL” (BOEHRINGER INGELHEIM VETMEDICA GMBH, priority 2010, published 2014):
Counter-ions that a name gives are not always drawn. Like-named read-outs stand apart in the source and are kept apart here.

Key:
plasma DPP IV = molecular target: T1, plasma DPP IV (Mus musculus, UniProt P28843); assay: Inhibition of plasma DPP IV activity in vitro, mouse plasma; format: biochemical
T1 construct: from tissue; host or cells: mouse plasma
Procedure: Studies were also conducted to assess the inhibitory effect of this compound on plasma DPP IV activity in several species.

plasma DPP-4 = molecular target: T2, plasma DPP-4 (Rattus norvegicus, UniProt P14740); assay: Inhibition of DPP-4 in rat plasma (in vitro); format: biochemical; details: wistar rat plasma
T2 construct: from tissue
Procedure: Plasma obtained from 3 different cats and one Wistar rat as control were each incubated with a range of concentrations of 1-[(3-cyano-pyridin-2-yl)methyl]-3-methyl-7-(2-butyn-1-yl)-8-[3-(R)-amino-piperidin-1-yl]-xanthine monohydrochloride. Plasma DPP-4 activity was measured in the following way (which is also described in Eckhard et al. (2007), J. Med. Chem., Vol. 50, 6450-6453, Supporting Information).
Rat and cat plasma was used for ex vivo measurement of DDP-4 activity. Blood was collected in EDTA tubes and subjected to centrifugation. The resultant supernatant was aliquoted and frozen. […]
The assay itself was initiated by mixing 50 μl of diluted plasma with 50 μl of diluted substrate (Ala-Pro-AFC) and performed in black flat-bottom 96-well plates. The plates were then incubated at room temperature for 1 h and fluorescence was measured at excitation/emission wavelengths of 405/535 nm. Data analysis was performed by calculating the fluorescence in the presence of the test compound compared to the fluorescence of the vehicle control after subtracting the background fluorescence.
From a plot of concentration against activity (equivalent to fluorescence units) kinetic data could be collected, e.g. the half-maximal inhibitory concentration (IC50) of the tested compound in the different animals, which data are given in the following Table 2.

DPP IV [1] = molecular target: T3, DPP IV (Felis catus, UniProt Q9N2I7); assay: Exploratory single dose PK/PD (1.0/5.0/10.0 mg/kg) in cats: DPP IV activity; format: in vivo, cat; details: for response vs control in vivo at 1 mg/kg: 1 mg/kg single oral; for response vs control in vivo at 1 mg/kg / response vs control in vivo at 5 mg/kg / response vs control in vivo at 10 mg/kg: read-out: DPP IV activity in cat plasma; for response vs control in vivo at 5 mg/kg: 5 mg/kg single oral; for response vs control in vivo at 10 mg/kg: 10 mg/kg single oral
T3 construct: Blood samples for the determination of this compound and DPP IV activity were collected; from tissue; host or cells: plasma of domestic short hair / purpose-bred cats dosed orally
Procedure: The investigation of the PK/PD values was conducted in the same way as in Example 7, with the variations described below.
The aim of this study was to investigate the PK/PD behaviour of 1-[(3-cyano-pyridin-2-yl)methyl]-3-methyl-7-(2-butyn-1-yl)-8-[3-(R)-amino-piperidin-1-yl]-xanthine in the cat following a single oral administration of 0, 1, 5 and 10 mg/kg body weight (dosages were based on the free base: 1 mg 1-[(3-cyano-pyridin-2-yl)methyl]-3-methyl-7-(2-butyn-1-yl)-8-[3-(R)-amino-piperidin-1-yl]-xanthine monohydrochloride corresponds to 0.923 mg 1-[(3-cyano-pyridin-2-yl)methyl]-3-methyl-7-(2-butyn-1-yl)-8-[3-(R)-amino-piperidin-1-yl]-xanthine free base).
Twelve clinically healthy male adult domestic short hair cats with a body weight range of 3.5-4.7 kg were used in this study. All animals were treated orally once via a stomach tube. Blood samples for pharmacokinetic and pharmacodynamic (DPP IV activity) investigations were drawn at 0 h (i.e. prior to treatment), 30 min as well as 1, 2, 4, 8, 8.5, 9, 12, 24, 36, 48, 72, 84 and 96 h after treatment. Blood samples for pharmacodynamic (glucagon-like peptide 1 concentrations) investigations were drawn at −16 (i.e. prior to feeding), −15.5, −15 h as well as at 8 h (i.e. prior to feeding), 8.5 and 9 h after treatment.

DPP IV [2] = molecular target: T3, DPP IV; assay: 60-Day tolerability study of tablets in cats: relative DPP IV activity; format: in vivo, cat; details: percent of day 2 predose
Procedure: This study was conducted in order to examine the long-term tolerability of a pharmaceutical composition comprising 1-[(3-cyano-pyridin-2-yl)methyl]-3-methyl-7-(2-butyn-1-yl)-8-[3-(R)-amino-piperidin-1-yl]-xanthine monohydrochloride in cats after repeated oral administration for 60-days.
For this purpose, the compound according to the invention has been admixed with standard ingredients to a scored, oblong, brown tablet, size 10×5.5 mm, comprising 1-[(3-cyano-pyridin-2-yl)methyl]-3-methyl-7-(2-butyn-1-yl)-8-[3-(R)-amino-piperidin-1-yl]-xanthine monohydrochloride at 21.68 mg of the chloride per tablet (which equals 20 mg of the free base) and 10% meat flavour.
20 male healthy non-obese cats (Domestic short hair feline) supplied by Liberty Research, Inc., Waverly, N.Y., USA, of an age of 13 to 20 months were used. After an adaptation period of 4 weeks, they were separated into three groups: group 1 (6 members, no. 1 to 6) for placebo treatment, group 2 (7 members, no. 7 to 13) for treatment with 20 mg/cat, group 3 (7 members, no. 14 to 20) for treatment with 40 mg/cat. They were treated once daily in the morning, orally with the respective tablet(s) for 60 days. All animals had fasted over night and were fed 4 hours after the administration. Drinking water was offered ad libitum. Housing conditions etc. were kept constant and equally for all animals; they were kept in groups during the adaptation period and singly during the experimental period.
Relative DPP-IV activity was measured as described above.

T3 sequence (Q9N2I7 38-765 limits assumed): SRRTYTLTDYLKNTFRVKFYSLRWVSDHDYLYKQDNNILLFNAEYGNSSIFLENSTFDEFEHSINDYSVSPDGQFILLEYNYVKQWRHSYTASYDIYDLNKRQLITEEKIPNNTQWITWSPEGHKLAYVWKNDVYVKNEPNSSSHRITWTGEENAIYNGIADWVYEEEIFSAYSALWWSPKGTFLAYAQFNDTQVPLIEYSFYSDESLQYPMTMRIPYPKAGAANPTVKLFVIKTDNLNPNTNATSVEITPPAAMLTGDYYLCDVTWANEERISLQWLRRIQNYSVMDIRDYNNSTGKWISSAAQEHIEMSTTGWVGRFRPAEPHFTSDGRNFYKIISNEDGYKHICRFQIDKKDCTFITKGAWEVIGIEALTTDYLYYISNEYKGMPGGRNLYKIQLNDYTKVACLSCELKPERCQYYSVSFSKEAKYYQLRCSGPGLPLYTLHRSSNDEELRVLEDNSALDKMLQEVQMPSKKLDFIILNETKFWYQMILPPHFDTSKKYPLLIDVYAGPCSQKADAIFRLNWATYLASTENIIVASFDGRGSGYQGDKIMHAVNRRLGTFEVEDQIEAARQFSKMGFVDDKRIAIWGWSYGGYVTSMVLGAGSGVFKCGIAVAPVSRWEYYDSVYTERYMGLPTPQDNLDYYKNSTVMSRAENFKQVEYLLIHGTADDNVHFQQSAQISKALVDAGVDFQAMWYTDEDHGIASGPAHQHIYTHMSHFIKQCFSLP
T2 sequence (P14740 37-767 limits assumed): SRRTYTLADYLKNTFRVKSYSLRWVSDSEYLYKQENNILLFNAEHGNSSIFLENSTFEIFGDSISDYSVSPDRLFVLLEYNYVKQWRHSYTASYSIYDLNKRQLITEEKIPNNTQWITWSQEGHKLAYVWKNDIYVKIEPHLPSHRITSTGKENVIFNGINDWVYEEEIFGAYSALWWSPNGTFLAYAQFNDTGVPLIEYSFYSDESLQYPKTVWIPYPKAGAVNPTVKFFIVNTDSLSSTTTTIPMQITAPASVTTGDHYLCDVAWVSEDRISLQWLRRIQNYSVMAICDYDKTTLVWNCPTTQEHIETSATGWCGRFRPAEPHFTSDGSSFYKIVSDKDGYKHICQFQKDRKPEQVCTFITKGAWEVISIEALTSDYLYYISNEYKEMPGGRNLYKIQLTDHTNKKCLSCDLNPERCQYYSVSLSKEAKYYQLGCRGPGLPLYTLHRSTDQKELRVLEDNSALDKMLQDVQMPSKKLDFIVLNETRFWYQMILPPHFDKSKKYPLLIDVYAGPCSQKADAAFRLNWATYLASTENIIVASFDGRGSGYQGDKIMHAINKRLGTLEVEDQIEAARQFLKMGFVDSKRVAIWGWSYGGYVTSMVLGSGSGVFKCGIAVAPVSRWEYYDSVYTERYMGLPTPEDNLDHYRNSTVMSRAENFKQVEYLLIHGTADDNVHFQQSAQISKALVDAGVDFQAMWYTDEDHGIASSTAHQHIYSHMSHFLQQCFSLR
T1 sequence (P28843 37-760 limits assumed): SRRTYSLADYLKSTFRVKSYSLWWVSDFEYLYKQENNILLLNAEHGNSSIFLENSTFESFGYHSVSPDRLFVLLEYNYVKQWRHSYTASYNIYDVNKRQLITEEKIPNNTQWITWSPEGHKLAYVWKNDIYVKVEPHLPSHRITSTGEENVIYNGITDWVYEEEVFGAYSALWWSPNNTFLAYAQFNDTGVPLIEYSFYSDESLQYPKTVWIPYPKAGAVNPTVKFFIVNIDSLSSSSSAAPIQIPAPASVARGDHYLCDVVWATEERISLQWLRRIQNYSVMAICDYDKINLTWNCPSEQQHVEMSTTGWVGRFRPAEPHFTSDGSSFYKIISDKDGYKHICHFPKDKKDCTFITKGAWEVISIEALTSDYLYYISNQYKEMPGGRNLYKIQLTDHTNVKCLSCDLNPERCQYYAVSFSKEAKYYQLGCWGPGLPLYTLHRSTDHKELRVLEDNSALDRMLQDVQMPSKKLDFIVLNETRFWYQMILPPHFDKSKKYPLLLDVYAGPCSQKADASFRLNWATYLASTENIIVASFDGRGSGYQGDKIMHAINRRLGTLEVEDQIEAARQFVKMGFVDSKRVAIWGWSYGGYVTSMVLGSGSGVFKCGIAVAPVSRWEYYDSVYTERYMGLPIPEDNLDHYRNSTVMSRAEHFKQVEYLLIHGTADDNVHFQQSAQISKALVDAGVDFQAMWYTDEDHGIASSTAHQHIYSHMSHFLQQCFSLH

SMILES: CC#CCn1c(N2CCC[C@@H](N)C2)nc2c1c(=O)n(Cc1ncccc1C#N)c(=O)n2C [1-[(3-cyano-pyridin-2-yl)methyl]-3-methyl-7-(2-butyn-1-yl)-8-[3-(R)-amino-piperidin-1-yl]-xanthine monohydrochloride]
- IC50 (plasma DPP IV): ~1.7 nM
- IC50 (plasma DPP-4): 1.95 nM
- hillslope (plasma DPP-4): −0.8462
- time up to which DPP IV values remained ≦20% (DPP IV [1]; 1.0 mg/kg single oral): 12 h
- response vs control in vivo at 1 mg/kg (DPP IV [1]; 0.5 h): 8%
- response vs control in vivo at 1 mg/kg (DPP IV [1]; 1 h): 7%
- response vs control in vivo at 1 mg/kg (DPP IV [1]; 2 h): 7%
- response vs control in vivo at 1 mg/kg (DPP IV [1]; 4 h): 7.3%
- response vs control in vivo at 1 mg/kg (DPP IV [1]; 8 h): 9.3%
- response vs control in vivo at 1 mg/kg (DPP IV [1]; 8.5 h): 9.7%
- response vs control in vivo at 1 mg/kg (DPP IV [1]; 9 h): 9.7%
- response vs control in vivo at 1 mg/kg (DPP IV [1]; 12 h): 12.3%
- response vs control in vivo at 1 mg/kg (DPP IV [1]; 24 h): 22.3%
- response vs control in vivo at 1 mg/kg (DPP IV [1]; 36 h): 43%
- response vs control in vivo at 1 mg/kg (DPP IV [1]; 48 h): 59%
- response vs control in vivo at 1 mg/kg (DPP IV [1]; 72 h): 74.7%
- response vs control in vivo at 1 mg/kg (DPP IV [1]; 84 h): 84.3%
- response vs control in vivo at 1 mg/kg (DPP IV [1]; 96 h): 81.7%
- time up to which DPP IV values remained ≦20% (DPP IV [1]; 5.0 mg/kg single oral): 24 h
- response vs control in vivo at 5 mg/kg (DPP IV [1]; 0.5 h): 7.7%
- response vs control in vivo at 5 mg/kg (DPP IV [1]; 1 h): 7%
- response vs control in vivo at 5 mg/kg (DPP IV [1]; 2 h): 7%
- response vs control in vivo at 5 mg/kg (DPP IV [1]; 4 h): 7.7%
- response vs control in vivo at 5 mg/kg (DPP IV [1]; 8 h): 8.3%
- response vs control in vivo at 5 mg/kg (DPP IV [1]; 8.5 h): 8.7%
- response vs control in vivo at 5 mg/kg (DPP IV [1]; 9 h): 9%
- response vs control in vivo at 5 mg/kg (DPP IV [1]; 12 h): 9.3%
- response vs control in vivo at 5 mg/kg (DPP IV [1]; 24 h): 14.7%
- response vs control in vivo at 5 mg/kg (DPP IV [1]; 36 h): 25.7%
- response vs control in vivo at 5 mg/kg (DPP IV [1]; 48 h): 42.7%
- response vs control in vivo at 5 mg/kg (DPP IV [1]; 72 h): 72.3%
- response vs control in vivo at 5 mg/kg (DPP IV [1]; 84 h): 90%
- response vs control in vivo at 5 mg/kg (DPP IV [1]; 96 h): 87.7%
- time up to which DPP IV values remained ≦20% (DPP IV [1]; 10.0 mg/kg single oral): 48 h
- response vs control in vivo at 10 mg/kg (DPP IV [1]; 0.5 h): 8%
- response vs control in vivo at 10 mg/kg (DPP IV [1]; 1 h): 7.3%
- response vs control in vivo at 10 mg/kg (DPP IV [1]; 2 h): 7.3%
- response vs control in vivo at 10 mg/kg (DPP IV [1]; 4 h): 9%
- response vs control in vivo at 10 mg/kg (DPP IV [1]; 8 h): 9%
- response vs control in vivo at 10 mg/kg (DPP IV [1]; 8.5 h): 9.7%
- response vs control in vivo at 10 mg/kg (DPP IV [1]; 9 h): 9.3%
- response vs control in vivo at 10 mg/kg (DPP IV [1]; 12 h): 9.7%
- response vs control in vivo at 10 mg/kg (DPP IV [1]; 24 h): 12.3%
- response vs control in vivo at 10 mg/kg (DPP IV [1]; 36 h): 16.3%
- response vs control in vivo at 10 mg/kg (DPP IV [1]; 48 h): 20%
- response vs control in vivo at 10 mg/kg (DPP IV [1]; 72 h): 37%
- response vs control in vivo at 10 mg/kg (DPP IV [1]; 84 h): 58.3%
- response vs control in vivo at 10 mg/kg (DPP IV [1]; 96 h): 67.3%
- minimum mean DPP IV values (DPP IV [1]; all three groups (1.0, 5.0, 10.0 mg/kg single oral)): 7%
- plasma concentration at which maximum DPP-IV inhibition was reached (DPP IV [1]; cat, PK-PD correlation): 15 to 30 nmol/L
- Relative DPP IV activity (DPP IV [2]; Group no. 2 (20 mg daily tablets), Treatment day 60 (1 h after dose)): 11%
- Relative DPP IV activity (DPP IV [2]; Group no. 2, excl. animal no. 8 (20 mg daily tablets), Treatment day 60 (predose)): 17%
- Relative DPP IV activity (DPP IV [2]; Group no. 3 (40 mg daily tablets), Treatment day 60 (1 h after dose)): 10%
- Relative DPP IV activity (DPP IV [2]; Group no. 3 (40 mg daily tablets), Treatment day 60 (predose)): 16%
